Results reported in US4151350A, “Poly-5-hydroxycytidylic acid copolymers” (priority 1976, dated 1979).

Legend:
[1] = Acute toxicity (LD50), intraperitoneal, mice (Example 6, Table 4); format: in vivo, 6 week old female albino mice; conditions: i.p.; for Estimated LD50 dose: mice
Excerpt: The toxicity of these mixtures (LD50) are compared with the toxicity of poly I alone and the double-stranded complex between poly I and poly C (poly I:C). The mixtures contained poly ho^5 C containing 62% ho^5 CMP and 38% br^5 CMP obtained by bromine water treatment of poly C as described in example 1. Some of this material was frozen in the absence of salt to produce a gelled material when thawed. This material was homogenised and mixed with an equal weight of poly I and then administered intraperitoneally to the mice. Some of the poly ho^5 C is kept unfrozen and mixed with poly I and then administered intraperitoneally to the mice.
Poly I:C was made up in HBS at 5mg. 8mg, 10mgs and 13mg/ml and 0.1ml
injected per mouse to give the total doses shown.
Poly I was made up in HBS at 12mg/ml and appropriate volumes administered
to give the final doses indicated.
in HBS to a total polynucleotide concentration of 12mg/ml and appropriate
volumes administered to give the final doses indicated.
No deaths occurred after 7 days (records maintained 2 months) and mean

[2] = particularly by virtue of its ability to induce interferon; cited from earlier work

Substance	Survival of mice per group ([1]; 0.5 mg total polynucleotides)	Survival of mice per group ([1]; 0.8 mg total polynucleotides)	Survival of mice per group ([1]; 1.0 mg total polynucleotides)	Survival of mice per group ([1]; 1.3 mg total polynucleotides)	Estimated LD50 dose [1]	Estimated LD50 dose ([1]; mean weight 23 g)	anti-viral effects [2]	Survival of mice per group ([1]; 8 mg total polynucleotides)	Survival of mice per group ([1]; 12 mg total polynucleotides)	Survival of mice per group ([1]; 16 mg total polynucleotides)	Survival of mice per group ([1]; 24 mg total polynucleotides)
poly I:C	10/10	8/10	6/10	0/10	1.1 mg/mouse	48 mg/kilogram	known to have anti-viral effects	–	–	–	–
polyinosinic acid [poly I]	–	–	–	–	16 mg/mouse	695 mg/kilogram	–	5/6	5/6	3/6	1/6
